The record followed here is patent US20230025510A1, “BIARYL ETHER-TYPE QUINAZOLINE DERIVATIVES” (DAIICHI SANKYO COMPANY, LIMITED, priority 2018, published 2023).

A word on the GI50: it is the concentration that inhibits growth by half. Lower therefore signals greater sensitivity of the cells.

Holding throughout (assay type): cell-based
In assay [1] the test system is Ba/F3-EGFR ins. ASV cells. Kind of assay: Cell proliferation suppression test (CellTiter-Glo, GI50), Ba/F3-EGFR ins. ASV. The settings on record: Mus musculus, 72 h, 3 days, N=4. In outline: (§1)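 Ba/F3 lines in RPMI 1640/10% FBS without puromycin; IL-3 5 ng/mL added for Mock, EGF 100 ng/mL for EGFR WT. Cells treated 3 days at 37 °C, 5% CO2; ATP measured by CellTiter-Glo 2.0 on day 0 and day 3 (N=4). GI50 is the concentration inhibiting 50% of day 0–3 proliferation.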
(In general: Cellular ATP, detected with luciferase, serves as a proxy for viable cell number.)

For assay [2], the system named is Ba/F3-EGFR WT cells. Kind of assay: Cell proliferation suppression test (CellTiter-Glo, GI50), Ba/F3-EGFR WT. The settings on record: Mus musculus, 72 h, 100 ng/mL EGF, 3 days, N=4. The gist of the method:
as §1

The subject of assay [3] is Ba/F3-Mock cells. Kind of assay: Cell proliferation suppression test (CellTiter-Glo, GI50), Ba/F3-Mock. Particulars: Mus musculus, BaF3, 72 h, 5 ng/mL IL-3, 3 days, N=4. In outline:
as §1

The subject of assay [4] is Ba/F3-EGFR ins. SVD cells. Kind of assay: Cell proliferation suppression test (CellTiter-Glo, GI50), Ba/F3-EGFR ins. SVD. The settings on record: Mus musculus, 72 h, 3 days, N=4. In outline: as §1

As for `C=CC(=O)N1CCC(Oc2cc3c(Nc4ccc(Oc5ccn(C(=O)NC(C)(CF)CF)n5)cc4F)ncnc3cc2OC)CC1` [Example 23, N-(1,3-Difluoro-2-methylpropan-2-yl)-3-{3-fluoro-4-[(7-methoxy-6-{[1-(prop-2-enoyl)piperidin-4-yl]oxy}quinazolin-4-yl)amino]phenoxy}-1H-pyrazole-1-carboxamide], the GI50 worked out at 12.4 nM in assay [1], 110 nM in assay [2], 5530 nM in assay [3] and 10.9 nM in assay [4].
The corresponding values for `COc1cc2ncnc(Nc3ccc(Oc4nc(-c5nnc(C6CC6)o5)cs4)cc3F)c2cc1NC(=O)/C=C/CN1CC[C@@H](OC)C1` [Example 63, (2E)-N-[4-(4-{[4-(5-Cyclopropyl-1,3,4-oxadiazol-2-yl)-1,3-thiazol-2-yl]oxy}-2-fluoroanilino)-7-methoxyquinazolin-6-yl]-4-[(3R)-3-methoxypyrrolidin-1-yl]but-2-enamide] are 49.5 nM, 129 nM, 1060 nM and 81.8 nM.
The corresponding values for `C=CC(=O)N1CCC(Oc2cc3c(Nc4ccc(Oc5cccc(-c6cn(C)nn6)c5)cc4Cl)ncnc3cc2OC)CC1` [Example 3, 1-{4-[(4-{2-Chloro-4-[3-(1-methyl-1H-1,2,3-triazol-4-yl)phenoxy]anilino}-7-methoxyquinazolin-6-yl)oxy]piperidin-1-yl}prop-2-en-1-one] are 40.6 nM, 370 nM, 9930 nM and 30 nM.
With `C=CC(=O)N1CCC(Oc2cc3c(Nc4ccc(Oc5ccn(-c6ccc(F)nc6)n5)cc4F)ncnc3cc2OC)CC1` [Example 32], the GI50 in assay [1] is 11.9 nM; in assay [2], 162 nM; in assay [3] it was over 10000 nM; in assay [4], 12.7 nM.
Consider `COc1cc2ncnc(Nc3ccc(Oc4cccc(-c5nnc(C(C)C)o5)c4)cc3F)c2cc1NC(=O)/C=C/CN(C)C` [Example 43, (2E)-4-(Dimethylamino)-N-[4-(2-fluoro-4-{3-[5-(propan-2-yl)-1,3,4-oxadiazol-2-yl]phenoxy}anilino)-7-methoxyquinazolin-6-yl]but-2-enamide], for which the 50% growth inhibitory concentration (GI50) in assay [1] was found to be 5.5 nM; in assay [2], 69.8 nM; in assay [3], 806 nM; in assay [4] it was 14.1 nM.
The corresponding values for `C=CC(=O)N1CCC(Oc2cc3c(Nc4ccc(Oc5ccn(C(=O)NC(C)(C)CF)n5)cc4F)ncnc3cc2OC)CC1` [Example 5, 3-{3-Fluoro-4-[(7-methoxy-6-{[1-(prop-2-enoyl)piperidin-4-yl]oxy}quinazolin-4-yl)amino]phenoxy}-N-(1-fluoro-2-methylpropan-2-yl)-1H-pyrazole-1-carboxamide] are 5.4 nM, 77.1 nM, over 10000 nM and 4.3 nM.
Take `C=CC(=O)N1CCC(Oc2cc3c(Nc4ccc(Oc5ccn(-c6cnc(C7CC7)nc6)n5)cc4F)ncnc3cc2OC)CC1` [Example 10, 1-(4-{[4-(4-{[1-(2-cyclopropylpyrimidin-5-yl)-1H-pyrazol-3-yl]oxy}-2-fluoroanilino)-7-methoxyquinazolin-6-yl]oxy}piperidin-1-yl)prop-2-en-1-one]: the GI50 in assay [1] is 11.9 nM; in assay [2], 212 nM; in assay [3], 6170 nM; in assay [4], 7.6 nM.
As for `COc1cc2ncnc(Nc3ccc(Oc4nn(CC(=O)NC(C)(C)C)cc4F)cc3Cl)c2cc1NC(=O)/C=C/CN1CC[C@@H](F)C1` [Example 56, (2E)-N-{4-[4-({1-[2-(tert-Butylamino)-2-oxoethyl]-4-fluoro-1H-pyrazol-3-yl}oxy)-2-chloroanilino]-7-methoxyquinazolin-6-yl}-4-[(3R)-3-fluoropyrrolidin-1-yl]but-2-enamide], the concentration for 50% growth inhibition (GI50) in assay [1] stood at 8.5 nM; in assay [2], 635 nM; in assay [3] it was 4680 nM; in assay [4], 4.6 nM.
Take `COc1cc2ncnc(Nc3ccc(Oc4nn(CC(=O)NC(C)(C)C)cc4F)cc3Cl)c2cc1NC(=O)/C=C/CN(C)C` [Example 45, (2E)-N-{4-[4-({1-[2-(tert-Butylamino)-2-oxoethyl]-4-fluoro-1H-pyrazol-3-yl}oxy)-2-chloroanilino]-7-methoxyquinazolin-6-yl}-4-(dimethylamino)but-2-enamide]: the GI50 is 10 nM in assay [1], 412 nM in assay [2], 2840 nM in assay [3] and 11.6 nM in assay [4].
In the case of `COc1cc2ncnc(Nc3ccc(Oc4nn(CC(=O)NC(C)(C)C)cc4F)cc3Cl)c2cc1NC(=O)/C=C/CN1CCOCC1` [Example 54, (2E)-N-{4-[4-({1-[2-(tert-Butylamino)-2-oxoethyl]-4-fluoro-1H-pyrazol-3-yl}oxy)-2-chloroanilino]-7-methoxyquinazolin-6-yl}-4-(morpholin-4-yl)but-2-enamide], the concentration for 50% growth inhibition (GI50) in assay [1] is 33.4 nM; in assay [2] it was 2890 nM; in assay [3] it was over 10000 nM; in assay [4] it was 50.6 nM.
As for `COc1cc2ncnc(Nc3ccc(Oc4cccc(CC(=O)NC(C)(C)C)c4)cc3F)c2cc1NC(=O)/C=C/CN1CCOCC1` [Example 49, (2E)-N-[4-(4-{3-[2-(tert-Butylamino)-2-oxoethyl]phenoxy}-2-fluoroanilino)-7-methoxyquinazolin-6-yl]-4-(morpholin-4-yl)but-2-enamide], the GI50 in assay [1] is 20.7 nM; in assay [2], 732 nM; in assay [3] it was over 10000 nM; in assay [4] it was 21.1 nM.
The like results for `C=CC(=O)N1CCC(Oc2cc3c(Nc4ccc(Oc5cccc(-c6nnc(C)o6)c5)cc4Cl)ncnc3cc2OC)CC1` [Example 13, 1-{4-[(4-{2-Chloro-4-[3-(5-methyl-1,3,4-oxadiazol-2-yl)phenoxy]anilino}-7-methoxyquinazolin-6-yl)oxy]piperidin-1-yl}prop-2-en-1-one] were, in that order, 44.5 nM, 854 nM, 8280 nM and 54.1 nM.
The corresponding values for `C=CC(=O)N1CCC(Oc2cc3c(Nc4ccc(Oc5nc(-c6cnc(OC)nc6)cs5)cc4F)ncnc3cc2OC)CC1` [Example 16, 1-(4-{[4-(2-Fluoro-4-{[4-(2-methoxypyrimidin-5-yl)-1,3-thiazol-2-yl]oxy}anilino)-7-methoxyquinazolin-6-yl]oxy}piperidin-1-yl)prop-2-en-1-one] are 11.4 nM, 320 nM, over 10000 nM and 11.3 nM.
For the compound `COc1cc2ncnc(Nc3ccc(Oc4nn(CC(=O)NC(C)(C)C)cc4F)cc3Cl)c2cc1NC(=O)/C=C/CN1CCC(F)C1` (racemic) [Example 55, rac-(2E)-N-{4-[4-({1-[2-(tert-Butylamino)-2-oxoethyl]-4-fluoro-1H-pyrazol-3-yl}oxy)-2-chloroanilino]-7-methoxyquinazolin-6-yl}-4-(3-fluoropyrrolidin-1-yl)but-2-enamide], the concentration for 50% growth inhibition (GI50) was 12.9 nM in assay [1], 441 nM in assay [2], 4290 nM in assay [3] and 10.3 nM in assay [4].
